Patent publication US4119667A, “Haloaniline derivatives as plant growth modifiers” (Rohm and Haas Company, priority 1974, dated 1978)
Read-outs that look alike come from different tables or passages of the source.

What was measured:
[1] = tested on: soybean (Var. Clark); experiment: greenhouse growth regulator test on soybean (Table I); type: in vivo; conditions: two weeks after application; for Injury (0-10): 0-10 scale, 0 = no effect, 10 = complete kill
Source text: Limited greenhouse experiments shown that there is promotion of lateral bud growth when compounds are applied at higher concentrations and earlier timings and an increase in soybean pod numbers at lower rates applied just prior to or at the flowering stage. […] Three parameters are reported in Table I to indicate the general spectrum of activity for each evaluated compound including the propensity for releasing lateral bud growth in soybeans. These are: (a) plant height measured as percent inhibition relative to the control; (b) the number of lateral buds per plant; and (c) phytotoxic injury on a scale of 0 to 10 (10 being maximum injury). Sampling compounds were evaluated in the greenhouse in a special growth regulator test. Four to five soybean seeds (Var. Clark) were planted in 4-inch pots with a humus-soil mixture. Two weeks after planting, two uniform plants were selected from each pot for treatment. The candidate compounds were dissolved in acetone-water (1:1), and applied as a foliar spray in a carrier volume of 50 gallons per acre, using a moving belt sprayer at a rate of 1/4, 1/2 and 2 lbs/acre. Six plants were used for each treatment. Two weeks after application, the number of laterals per plant, plant injury (0-10 scale; 0 = no effect, 10 = complete kill,) and the height of each plant were recorded. Untreated plants were used as controls.

[2] = tested on: soybean (Var. Clark); experiment: effect of haloaniline derivatives on soybean yields at different rates and stages of growth (Table VIII); type: in vivo
Protocol: a further experiment was conducted to determine the effect of selected haloaniline derivatives on soybean yields at different rates of application, and at differing stages of growth.
Soybeans (Var. Clark) were planted at the rate of 4 seeds per 6 inch pot in a medium of 1 part humus and 2 parts soil. Two weeks after planting two uniform plants were selected from each pot for treatment. The soybeans were treated weekly with a high analysis liquid fertilizer. The candidate compounds were dissolved in acetone-water (1:1) and applied at three timings as a foliar spray in a carrier volume of 50 gallons per acre using a moving belt sprayer at rates ranging from 0.1 to two lbs. per acre. Six plants were used for each treatment. The beans were harvested eight weeks after the third treatment and the seeds and pods per plant were counted.

In the case of `Clc1cc(Cl)cc(NCNc2cc(Cl)cc(Cl)c2)c1` [I, N,N'-Bis[3,5-dichlorophenyl]methanediamine], the “No. Laterals per plant” value ([1]; 1/2 lbs/acre foliar spray) was 3, the “Injury (0-10)” value ([1]; 1/2 lbs/acre) was 0 and the “No. Laterals per plant” value ([1]; 1/4 lbs/acre foliar spray) was 1. The “Injury (0-10)” value ([1]; 1/4 lbs/acre) was 0, the “No. Laterals per plant” value ([1]; 2 lbs/acre foliar spray) was 5 and the “Injury (0-10)” value ([1]; 2 lbs/acre) was 1. For the same compound, the pest or weed control ([1]; Glycine max, foliar, 336 h, 1/2 lbs/acre foliar spray, relative to control, read-out: Height (% inhib.)) was 4%, the pest or weed control ([1]; Glycine max, foliar, 336 h, 1/4 lbs/acre foliar spray, relative to control, read-out: Height (% inhib.)) was 5% and the pest or weed control at 2241.7 g/ha ([1]; Glycine max, foliar, 336 h, 2 lbs/acre foliar spray, relative to control, read-out: Height (% inhib.)) was 17%. For the same compound, the “Pods per Plant” value ([2]; 2nd treatment, 0.10 lbs./A) was 24.5, the “Seeds per Plant” value ([2]; 2nd treatment, 0.10 lbs./A) was 42.7 and the “Seeds per Pod” value ([2]; 2nd treatment, 0.10 lbs./A) was 1.7. The “Pods per Plant” value ([2]; 2nd treatment, 0.30 lbs./A) was 14.5, the “Seeds per Plant” value ([2]; 2nd treatment, 0.30 lbs./A) was 9.3 and the “Seeds per Pod” value ([2]; 2nd treatment, 0.30 lbs./A) was 0.6. For the same compound, the “Pods per Plant” value ([2]; 2nd treatment, 0.90 lbs./A) was 9.0, the “Seeds per Plant” value ([2]; 2nd treatment, 0.90 lbs./A) was 4.3 and the “Seeds per Pod” value ([2]; 2nd treatment, 0.90 lbs./A) was 0.5. The “Pods per Plant” value ([2]; 3rd treatment, 0.10 lbs./A) was 7.0, the “Seeds per Plant” value ([2]; 3rd treatment, 0.10 lbs./A) was 12.8 and the “Seeds per Pod” value ([2]; 3rd treatment, 0.10 lbs./A) was 1.8. For the same compound, the “Pods per Plant” value ([2]; 3rd treatment, 0.30 lbs./A) was 8.3, the “Seeds per Plant” value ([2]; 3rd treatment, 0.30 lbs./A) was 13.3 and the “Seeds per Pod” value ([2]; 3rd treatment, 0.30 lbs./A) was 1.6. The “Pods per Plant” value ([2]; 3rd treatment, 0.90 lbs./A) was 7.2, the “Seeds per Plant” value ([2]; 3rd treatment, 0.90 lbs./A) was 13.3 and the “Seeds per Pod” value ([2]; 3rd treatment, 0.90 lbs./A) was 1.5.
